Measured values reported in ChEMBL document CHEMBL3608207, “Synthesis, characterization, evaluation and molecular dynamics studies of 5, 6-diphenyl-1,2,4-triazin-3(2H)-one derivatives bearing 5-substituted 1,3,4-oxadiazole as potential anti-inflammatory and analgesic agents” (Eur J Med Chem, 2015).

Legend:
[1] = Retardation factor of the compound; format: physicochemical
[2] = Octanol/water partition coefficient, log P of the compound by shake flask method; format: physicochemical
[3] = In-vitro anti-inflammatory activity assessed as inhibition of denaturation of bovine serum albumin at equimolar dose relative to 10 mg indomethacin; format: functional
Rattus norvegicus [4] = assay: Anti-inflammatory activity in rat model of acute inflammation assessed as inhibition of carrageenan-induced paw oedema dosed at equimolar oral dose relative to 10 mg/kg, po indomethacin dosed 1 hr before carrageenan injection and measured 2 hrs after carrageenan injection; format: functional
Rattus norvegicus [5] = assay: Anti-inflammatory activity in rat model of acute inflammation assessed as inhibition of carrageenan-induced paw oedema dosed at equimolar oral dose relative to 10 mg/kg, po indomethacin dosed 1 hr before carrageenan injection and measured 3 hrs after carrageenan injection; format: functional
Rattus norvegicus [6] = assay: Anti-inflammatory activity in rat model of acute inflammation assessed as inhibition of carrageenan-induced paw oedema dosed at equimolar oral dose relative to 10 mg/kg, po indomethacin dosed 1 hr before carrageenan injection and measured 4 hrs after carrageenan injection; format: functional
Rattus norvegicus [7] = assay: Anti-inflammatory activity in rat model of acute inflammation assessed as inhibition of carrageenan-induced paw oedema dosed at equimolar oral dose relative to 10 mg/kg, po indomethacin dosed 1 hr before carrageenan injection and measured 5 hrs after carrageenan injection; format: functional
Rattus norvegicus [8] = assay: Anti-inflammatory activity in rat model of acute inflammation assessed as inhibition of carrageenan-induced paw oedema dosed at equimolar oral dose relative to 10 mg/kg, po indomethacin dosed 1 hr before carrageenan injection and measured 6 hrs after carrageenan injection; format: functional
Rattus norvegicus [9] = assay: Anti-inflammatory activity in rat model of acute inflammation assessed as inhibition of carrageenan-induced paw oedema dosed at equimolar oral dose relative to 10 mg/kg, po indomethacin dosed 1 hr before carrageenan injection and measured 5 hrs after carrageenan injection relative to 10 mg/kg, po indomethacin; format: functional
Rattus norvegicus [10] = assay: Toxicity in healthy albino rat assessed as induction of changes in autonomic or behavioural responses up to 500 mg/kg, po; format: organism-based; settings: in vivo
Rattus norvegicus [11] = assay: Toxicity in healthy albino rat assessed as induction of tremors up to 500 mg/kg, po; format: organism-based; settings: in vivo
Rattus norvegicus [12] = assay: Toxicity in healthy albino rat assessed as induction of convulsion up to 500 mg/kg, po; format: organism-based; settings: in vivo
Rattus norvegicus [13] = assay: Toxicity in healthy albino rat assessed as induction of salivation up to 500 mg/kg, po; format: organism-based; settings: in vivo
Rattus norvegicus [14] = assay: Toxicity in healthy albino rat assessed as induction of diarrhoea up to 500 mg/kg, po; format: organism-based; settings: in vivo
Rattus norvegicus [15] = assay: Toxicity in healthy albino rat assessed as induction of lethargy up to 500 mg/kg, po; format: organism-based; settings: in vivo
Rattus norvegicus [16] = assay: Toxicity in healthy albino rat assessed as induction of sleep up to 500 mg/kg, po; format: organism-based; settings: in vivo
Rattus norvegicus [17] = assay: Toxicity in healthy albino rat assessed as induction of coma up to 500 mg/kg, po; format: organism-based; settings: in vivo
Rattus norvegicus [18] = assay: Toxicity in healthy albino rat assessed as induction of mortality at 500 mg/kg, po measured after 14 days; format: organism-based; settings: in vivo, 336 h
Rattus norvegicus [19] = assay: Anti-inflammatory activity in rat model of acute inflammation assessed as inhibition of carrageenan-induced paw oedema dosed at equimolar oral dose relative to 10 mg/kg, po indomethacin dosed 1 hr before carrageenan injection and measured 1 hr after carrageenan injection; format: functional
Rattus norvegicus [20] = assay: Anti-inflammatory activity in rat assessed as inhibition of arachidonic acid-induced paw edema at 10 mg/kg, po dosed 30 mins before arachidonic acid injection and measured 1 hr after arachidonic acid injection; format: functional
Mus musculus [21] = assay: Analgesic activity in Swiss albino mouse assessed as reduction in formalin-induced paw licking by measuring time spent on licking during phase-1 at 10 mg/kg, po dosed 1 hr before formalin challenge and measured 30 mins after formalin injection; format: functional
Mus musculus [22] = assay: Analgesic activity in Swiss albino mouse assessed as reduction in formalin-induced paw licking by measuring time spent on licking during phase-2 at 10 mg/kg, po dosed 1 hr before formalin challenge and measured 30 mins after formalin injection; format: functional

**Q.** For `N#Cc1cccc(-c2nnc(Cn3nc(-c4ccccc4)c(-c4ccccc4)nc3=O)o2)c1`, which Rf [1] is on record?
**A.** Its Rf is 0.45.

**Q.** What about the logP [2] of the same molecule?
**A.** The logP was 3.74.

**Q.** What about the inhibition [3] of the same molecule?
**A.** The inhibition was 62.3%.

**Q.** For `O=c1nc(-c2ccccc2)c(-c2ccccc2)nn1Cc1nnc(-c2ccccc2)o1`, which Rf [1] is on record?
**A.** The Rf was 0.4.

**Q.** And the logP [2]?
**A.** Its logP is 3.54.

**Q.** What about the inhibition [3] of the same molecule?
**A.** The inhibition was 50.3%.

**Q.** With `O=c1nc(-c2ccccc2)c(-c2ccccc2)nn1Cc1nnc(-c2cccc(Cl)c2)o1` as the molecule, how does the Rf [1] read?
**A.** Its Rf is 0.45.

**Q.** What about the logP [2] of the same molecule?
**A.** The logP was 3.82.

**Q.** And the inhibition [3]?
**A.** The inhibition was 64.4%.

**Q.** With `O=c1nc(-c2ccccc2)c(-c2ccccc2)nn1Cc1nnc(-c2ccncc2)o1` as the molecule, how does the Rf [1] read?
**A.** Its Rf is 0.43.

**Q.** What about the logP [2] of the same molecule?
**A.** The logP was 3.67.

**Q.** And the inhibition [3]?
**A.** Its inhibition is 47.9%.

**Q.** With `Oc1nnc(-c2ccccc2)c(-c2ccccc2)n1` as the molecule, how does the inhibition [3] read?
**A.** The inhibition was 30.7%.

**Q.** Which “inhibition (INH)” value (Rattus norvegicus [4]) does the source give for `O=c1nc(-c2ccccc2)c(-c2ccccc2)nn1Cc1nnc(-c2ccc(Cl)cc2Cl)o1` here?
**A.** Its value is 28.44%.

**Q.** What about the “inhibition (INH)” value (Rattus norvegicus [5]) of the same molecule?
**A.** The value was 31.23%.

**Q.** What about the “inhibition (INH)” value (Rattus norvegicus [6]) of the same molecule?
**A.** Its value is 34.8%.

**Q.** What about the “inhibition (INH)” value (Rattus norvegicus [7]) of the same molecule?
**A.** Its value is 38.31%.

**Q.** And the “inhibition (INH)” value (Rattus norvegicus [8])?
**A.** Its value is 35.42%.

**Q.** What about the “inhibition (INH)” value (Rattus norvegicus [9]) of the same molecule?
**A.** Its value is 61.16%.

**Q.** What about the Rf [1] of the same molecule?
**A.** Its Rf is 0.51.

**Q.** And the logP [2]?
**A.** The logP was 4.45.

**Q.** What about the inhibition [3] of the same molecule?
**A.** Its inhibition is 67.7%.

**Q.** And the Activity (Rattus norvegicus [10])?
**A.** The Activity was “Non-toxic”.

**Q.** What about the Activity (Rattus norvegicus [11]) of the same molecule?
**A.** Its Activity is “Non-toxic”.

**Q.** And the Activity (Rattus norvegicus [12])?
**A.** The Activity was “Non-toxic”.

**Q.** What about the Activity (Rattus norvegicus [13]) of the same molecule?
**A.** Its Activity is “Non-toxic”.

**Q.** And the Activity (Rattus norvegicus [14])?
**A.** The Activity was “Non-toxic”.

**Q.** And the Activity (Rattus norvegicus [15])?
**A.** Its Activity is “Non-toxic”.

**Q.** What about the Activity (Rattus norvegicus [16]) of the same molecule?
**A.** Its Activity is “Non-toxic”.

**Q.** And the Activity (Rattus norvegicus [17])?
**A.** Its Activity is “Non-toxic”.

**Q.** And the Activity (Rattus norvegicus [18])?
**A.** The Activity was “Non-toxic”.

**Q.** And the “inhibition (INH)” value (Rattus norvegicus [19])?
**A.** The value was 12.01%.

**Q.** For `Cc1ccccc1-c1nnc(Cn2nc(-c3ccccc3)c(-c3ccccc3)nc2=O)o1`, which Rf [1] is on record?
**A.** The Rf was 0.36.

**Q.** What about the logP [2] of the same molecule?
**A.** Its logP is 3.81.

**Q.** And the inhibition [3]?
**A.** Its inhibition is 53.7%.

**Q.** Which Rf [1] does the source give for `COc1cccc(-c2nnc(Cn3nc(-c4ccccc4)c(-c4ccccc4)nc3=O)o2)c1` here?
**A.** Its Rf is 0.38.

**Q.** And the logP [2]?
**A.** Its logP is 3.47.

**Q.** What about the inhibition [3] of the same molecule?
**A.** The inhibition was 62.7%.

**Q.** Which results are given for `Cc1ccc(-c2nnc(Cn3nc(-c4ccccc4)c(-c4ccccc4)nc3=O)o2)cc1`?
**A.** Rf [1]: 0.34; logP [2]: 3.73; inhibition [3]: 50.3%

**Q.** Which results are given for `O=c1nc(-c2ccccc2)c(-c2ccccc2)nn1Cc1nnc(-c2ccccc2[N+](=O)[O-])o1`?
**A.** inhibition (INH) (Rattus norvegicus [4]): 30.7%; inhibition (INH) (Rattus norvegicus [5]): 36.39%; inhibition (INH) (Rattus norvegicus [6]): 38.75%; inhibition (INH) (Rattus norvegicus [7]): 41.29%; inhibition (INH) (Rattus norvegicus [8]): 39%; inhibition (INH) (Rattus norvegicus [9]): 65.92%; Rf [1]: 0.35; logP [2]: 3.64; inhibition [3]: 70.1%; Activity (Rattus norvegicus [10]): Non-toxic; Activity (Rattus norvegicus [11]): Non-toxic; Activity (Rattus norvegicus [12]): Non-toxic; Activity (Rattus norvegicus [13]): Non-toxic; Activity (Rattus norvegicus [14]): Non-toxic; Activity (Rattus norvegicus [15]): Non-toxic; Activity (Rattus norvegicus [16]): Non-toxic; Activity (Rattus norvegicus [17]): Non-toxic; Activity (Rattus norvegicus [18]): Non-toxic; inhibition (INH) (Rattus norvegicus [19]): 12.12%

**Q.** Which inhibition [3] does the source give for `CCOC(=O)Cn1nc(-c2ccccc2)c(-c2ccccc2)nc1=O` here?
**A.** Its inhibition is 35.7%.

**Q.** Which inhibition [3] does the source give for `NNC(=O)Cn1nc(-c2ccccc2)c(-c2ccccc2)nc1=O` here?
**A.** Its inhibition is 38.3%.

**Q.** Which inhibition in vivo at 10 mg/kg (Rattus norvegicus [20]) does the source give for `CC(c1cc2ccccc2s1)N(O)C(N)=O` (centres undefined) [ZILEUTON] here?
**A.** The inhibition in vivo at 10 mg/kg was 67.4%.

**Q.** With `CC(C)=CCN1CC[C@]2(C)c3cc(O)ccc3C[C@H]1[C@H]2C` [(+)-PENTAZOCINE] as the molecule, how does the inhibition in vivo at 10 mg/kg (Mus musculus [21]) read?
**A.** The inhibition in vivo at 10 mg/kg was 88.9%.

**Q.** And the inhibition in vivo at 10 mg/kg (Mus musculus [22])?
**A.** The inhibition in vivo at 10 mg/kg was 90.2%.

**Q.** What does the source list for `O=c1nc(-c2ccccc2)c(-c2ccccc2)nn1Cc1nnc(Oc2ccc(Cl)cc2Cl)o1`?
**A.** inhibition (INH) (Rattus norvegicus [4]): 34.87%; inhibition (INH) (Rattus norvegicus [5]): 42.02%; inhibition (INH) (Rattus norvegicus [6]): 45.24%; inhibition (INH) (Rattus norvegicus [7]): 47.14%; inhibition (INH) (Rattus norvegicus [8]): 44.89%; inhibition (INH) (Rattus norvegicus [9]): 75.25%; Rf [1]: 0.47; logP [2]: 4.4; inhibition [3]: 72.7%; Activity (Rattus norvegicus [10]): Non-toxic; Activity (Rattus norvegicus [11]): Non-toxic; Activity (Rattus norvegicus [12]): Non-toxic; Activity (Rattus norvegicus [13]): Non-toxic; Activity (Rattus norvegicus [14]): Non-toxic; Activity (Rattus norvegicus [15]): Non-toxic; Activity (Rattus norvegicus [16]): Non-toxic; Activity (Rattus norvegicus [17]): Non-toxic; Activity (Rattus norvegicus [18]): Non-toxic; inhibition (INH) (Rattus norvegicus [19]): 15.59%
